Data as given in publication PMC11249646, “Small-Molecule Disruptors of the Interaction between Calcium- and Integrin-Binding Protein 1 and Integrin αIIbβ3 as Novel Antiplatelet Agents” (ACS Pharmacology & Translational Science, 2024).
Read-outs that look alike come from different tables or passages of the source.

How the values were obtained:
[1] = target: T1, GST-CIB1 : F-scrambled peptide (Homo sapiens, UniProt Q99828); test: FP scrambled-peptide counter screen, 1536-well format; type: binding; details: for Curve Class (counterscreen) / COUNTERSCREEN Curve Class: qHTS curve class
T1 construct: made in house; host or cells: BL-21 plus RIL cells (E. coli)
T1 sequence (Q99828 1-191): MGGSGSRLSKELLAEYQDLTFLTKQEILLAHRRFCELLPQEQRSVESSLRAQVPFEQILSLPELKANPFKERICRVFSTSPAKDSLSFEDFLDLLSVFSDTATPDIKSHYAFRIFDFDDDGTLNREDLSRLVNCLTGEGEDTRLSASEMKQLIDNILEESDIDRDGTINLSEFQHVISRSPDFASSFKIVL

[2] = target: T2, CIB1 and αIIb interaction (CIB1-GST : F-αIIb peptide) (Homo sapiens, UniProt Q99828); test: FP assay, 1536-well qHTS format (primary and confirmatory screen); type: binding; details: for Curve Class (confirmatory screen) / CONFIRMATORY SCREEN Curve Class: qHTS curve class
T2 construct: made in house; host or cells: BL-21 plus RIL cells (E. coli)
T2 sequence (Q99828 1-191): T1 sequence (Q99828 1-191)

[3] = Table S3, counterscreen, a negative sign marks inhibitory curves
[4] = Table S3, counterscreen, negative = inhibition
[5] = Table S3, counterscreen, read-out: IC50 [μM] (counterscreen)
[6] = Table S3, confirmatory screen, YES/NO call
[7] = Table S3, confirmatory screen, a negative sign marks inhibitory curves
[8] = Table S3, confirmatory screen, negative = inhibition
[9] = Table S3, confirmatory screen, read-out: IC50 [μM] (confirmatory screen)
[10] = qHTS primary screen hits, Table S2, negative = inhibition
[11] = qHTS primary screen hits, Table S2, negative sign = inhibitory curve, several classes where COUNT > 1
[12] = qHTS primary screen hits, Table S2, read-out: IC50
[13] = counterscreen, negative sign = inhibitory curve
[14] = confirmatory screen, negative sign = inhibitory curve
[15] = confirmatory screen, read-out: IC50 [μM] (confirmatory screen)
[16] = qHTS FP screen hits, Table S2, negative = inhibition
[17] = qHTS FP screen hits, Table S2, one class per curve where COUNT > 1, negative sign = inhibitory curve
[18] = qHTS FP screen hits, Table S2, read-out: IC50
[19] = scrambled-peptide counterscreen

| Structure (SMILES) | Curve Class (counterscreen) [1, 3] | Efficacy (%) (counterscreen) [1, 4] | IC50 [1, 5] | Curve Class (confirmatory screen) [2, 7] | Efficacy (%) (confirmatory screen) [2, 8] | Efficacy (%) [2, 10] | Curve Class [2, 11] | IC50 [2, 12] | Efficacy (%) (counterscreen) ([1]; counterscreen) | Confirm? (counterscreen) ([1]; counterscreen, YES/NO) | Curve Class (counterscreen) [1, 13] | Efficacy (%) (confirmatory screen) ([2]; confirmatory screen) | Confirm? (confirmatory screen) ([2]; confirmatory screen, YES/NO) | Curve Class (confirmatory screen) [2, 14] | Efficacy (%) [2, 16] | IC50 [2, 18] | other results |
| --- | --- | --- | --- | --- | --- | --- | --- | --- | --- | --- | --- | --- | --- | --- | --- | --- | --- |
| CC(O)C(=O)O.CCOc1ccc2nc3cc(N)ccc3c(N)c2c1.O [NCGC00096056-02] | -2.1 | -204% | 31.6 µM | -2.1 | -162% | -129% | -2.1 | 44.7 µM |  |  |  |  |  |  |  |  | Confirm? (confirmatory screen) [2, 6]: YES; IC50 [2, 9]: 25.1 µM |
| CC1(C)N=C(Nc2nc3ccccc3o2)NC2=C1C(=O)CCC2.O=C(O)C(F)(F)F [NCGC00187643-01] |  |  |  |  |  | -35% | -2.2 | 20 µM |  |  |  |  |  |  |  |  | COUNTERSCREEN Efficacy (%) ([1]; counterscreen): -12%; COUNTERSCREEN Curve Class ([1]; counterscreen): 4; CONFIRMATORY SCREEN Efficacy (%) ([2]; confirmatory screen): -26%; CONFIRMATORY SCREEN Curve Class ([2]; confirmatory screen): 4 |
| CCCCNC(=S)N/N=C1\C(=O)Nc2ccccc21.O=C(O)C(F)(F)F [NCGC00229539-01] | -1.2 | -50% | 11.2 µM | -2.4 | -49% | -32% | -1.2 | 17.8 µM |  |  |  |  |  |  |  |  | Confirm? (confirmatory screen) [2, 6]: YES; IC50 [2, 9]: 50.1 µM |
| CCC(=O)NC(c1cccs1)c1cc(Br)c2cccnc2c1O (centres unmarked) [NCGC00183689-01] |  |  |  |  |  |  |  |  | -21% | YES | 4 | -56% | YES | -2.4 | -54% | 28.2 µM | IC50 [2, 15]: 25.1 µM; Curve Class [2, 17]: -1.2 |
| O=C(O)C(F)(F)F.O=C1Nc2ccccc2/C1=N/NC(=S)Nc1c(F)cc(F)cc1F [NCGC00229537-01] |  |  |  |  |  | -30% | -1.4 | 12.6 µM |  |  |  |  |  |  |  |  | COUNTERSCREEN Efficacy (%) ([1]; counterscreen): -11%; COUNTERSCREEN Curve Class ([1]; counterscreen): 4; CONFIRMATORY SCREEN Efficacy (%) ([2]; confirmatory screen): -26%; CONFIRMATORY SCREEN Curve Class ([2]; confirmatory screen): 4 |
| CC(=O)Oc1cccc2c1C(=O)c1c(OC(C)=O)cc(C(=O)O)cc1C2=O [NCGC00018274-05] |  |  |  |  |  | -39% | -2.4 | 39.8 µM |  |  |  |  |  |  |  |  | COUNTERSCREEN Efficacy (%) [1, 19]: -53%; COUNTERSCREEN Confirm? ([1]; scrambled-peptide counterscreen, YES/NO call): YES; COUNTERSCREEN Curve Class [1, 19]: -2.4; IC50 ([1]; scrambled-peptide counterscreen, read-out: COUNTERSCREEN IC50): 50.1 µM; CONFIRMATORY SCREEN Confirm? ([2]; confirmatory screen, YES/NO call): YES; CONFIRMATORY SCREEN Curve Class [2, 14]: -1.4; CONFIRMATORY SCREEN Efficacy (%) ([2]; confirmatory screen, negative = inhibition): -50%; IC50 ([2]; confirmatory screen, read-out: CONFIRMATORY SCREEN IC50): 11.2 µM |
| COC[C@H]1OC(=O)c2coc3c2[C@@]1(C)C1=C(C3=O)[C@@H]2CCC(=O)[C@@]2(C)C[C@H]1OC(C)=O [NCGC00163485-03] |  |  |  |  |  |  |  |  | -20% | YES | 4 |  |  |  |  |  | IC50 [2, 15]: 28.2 µM |
| O=C(Cc1ccc(Cl)c(Cl)c1)Nc1ccc(S(=O)(=O)Nc2cnccn2)cc1.O=C(O)C(F)(F)F [NCGC00248365-02] |  |  |  |  |  |  |  |  | -24% | YES | 4 | -30% | YES | -1.4 | -26% | 17.8 µM |  |
| NS(=O)(=O)c1ccc(Nc2nc(-c3ccccc3)cs2)cc1.O=C(O)C(F)(F)F [NCGC00262411-01] | -2.1 | -98% | 44.7 µM | -2.2 | -84% | -58% | -2.2 | 50.1 µM |  |  |  |  |  |  |  |  | Confirm? (confirmatory screen) [2, 6]: YES |
| C=C(CC)C(=O)c1ccc(OCC(=O)O)c(Cl)c1Cl [NCGC00016260-13] |  |  |  |  |  |  |  |  | 0% | YES | 4 | -56% | YES | -2.4 | -28% | 1.3 µM | IC50 [2, 15]: 44.7 µM; Curve Class [2, 17]: -1.2 |
| Cc1c2c(=O)n(-c3ccccc3)[nH]c2cc(=O)n1-c1cccnc1.O=C(O)C(F)(F)F [NCGC00248472-01] | -2.2 | -60% | 39.8 µM | 4 | -23% |  |  |  |  |  |  |  |  |  | -31% | 39.8 µM | Confirm? (counterscreen) ([1]; Table S3, counterscreen, YES/NO call): YES |
| Cc1coc2c1C(=O)C(=O)c1c-2ccc2c(C)cccc12 [NCGC00247624-03] |  |  |  |  |  |  |  |  | -73% |  | -2.2 | -85% | YES | -2.2 | -40% | 39.8 µM | IC50 ([1]; counterscreen, read-out: IC50 [μM] (counterscreen)): 44.7 µM; Curve Class [2, 17]: -2.2 |
| O=C1OC(c2ccc(O)c(S(=O)(=O)[O-])c2)(c2ccc(O)c(S(=O)(=O)[O-])c2)c2c(Br)c(Br)c(Br)c(Br)c21.[Na+].[Na+] [NCGC00159391-03] |  | 31% | 50.1 µM | 4 | -20% | -32% | -1.4 | 15.8 µM |  |  |  |  |  |  |  |  |  |
